Results published in patent publication US12629394B2, “Atlas of Choroid Plexus cell types and therapeutic and diagnostic uses thereof” (The Broad Institute, Inc., priority 2019, dated 2026).
“Also recorded” adds a separate entry of the source.

Experiments:
choroid plexus, CSF = experiment: Intravenous MTX in rats: ChP and CSF antioxidants; type: in vivo, rat
choroid plexus in vitro = experiment: In vitro incubation of choroid plexus with MTX: ROS, mitochondria, SOD; type: cell-based, rodent
Experimental: (§1) Optimized assays for evaluating redox homeostasis and oxidative damage to cells, lipids, and DNA and found chemotherapy (MTX)-induced oxidative damage in human neurons in vitro and in rodent brain in vivo, and rodent ChP in vitro and in vivo was performed (FIG. 4; data not shown).

[1] = test system: CSF-SOD, CSF antioxidant capacity; experiment: Patient CSF after MTX: SOD expression and antioxidant capacity; type: in vivo, human
Experimental: (§2) AAV2/5-SOD3 or control AAV2/5-GFP was injected into embryonic (E) 13.5 mouse lateral ventricles, and offspring were raised to 4-6 weeks of age. Applicants quantified choroid plexus-SOD3 expression (qRT-PCR), CSF-SOD protein levels (immunoblotting), and CSF-anti-oxidant capacity (ELISA). In parallel, Applicants tested if Methotrexate (MTX) exposure induced signatures of oxidative damage in cultured human cortical neurons (iPSCs), in patient CSF, and in vivo rodent brain. To test if supplemental choroid plexus-SOD3 protects the brain from acute oxidative stress, intravenous MTX was administered to mice previously transduced with AAV2/5-SOD3 or control AAV2/5-GFP, and analyzed cortex, hippocampus, and corpus callosum for markers of oxidative damage 48 hours later.
as §1

[2] = test system: human iPSC cortical neurons; experiment: MTX exposure of cultured human cortical neurons (iPSCs): oxidative stress and damage; type: cell-based
Experimental: as §2, §1

[3] = test system: CSF-SOD, CSF antioxidant capacity; settings: despite thiol supplementation (e.g. Leucovorin); cited from earlier work
[4] = test system: choroid plexus, CSF, brain; experiment: Intravenous MTX in mice: ChP and CSF antioxidants, oxidative damage; type: in vivo, mouse
Experimental: as §2

[5] = mouse, MTX 4 mg/kg i.v., evaluation at 48 hours

SMILES: CN(Cc1cnc2nc(N)nc(N)c2n1)c1ccc(C(=O)N[C@@H](CCC(=O)O)C(=O)O)cc1 [MTX, Methotrexate]
- antioxidant availability in CSF (choroid plexus, CSF): reduced antioxidant availability in CSF
- choroid plexus anti-oxidant gene transcription (choroid plexus, CSF): decreased choroid plexus anti-oxidant gene transcription
- SOD expression and secretion (choroid plexus in vitro; in vitro): decreases SOD expression and secretion
- mitochondrial respiration in choroid plexus (choroid plexus in vitro; in vitro): impairs mitochondrial respiration
- ROS production in ChP (choroid plexus in vitro; in vitro incubation): inducing ROS production
- mitochondrial membrane potential in ChP (choroid plexus in vitro; in vitro incubation): alters mitochondrial membrane potential
- CSF-SOD expression levels after vs. before treatment ([1]; Primary CNS lymphoma patient, high dose MTX, sample 1B vs. pre-treatment 1A): reduced CSF-SOD expression levels
- antioxidant capacity of human CSF ([1]; human CSF): diminishes antioxidant capacity
- markers of oxidative damage in patient CSF ([1]; patient CSF): induced markers of oxidative damage
- oxidative stress in human iPSC cortical neurons ([2]; MTX 10 uM): triggers oxidative stress
- oxidative stress / markers of oxidative damage in cultured human neurons ([2]; human iPSC-derived neurons): induces oxidative stress; also recorded: induced markers of oxidative damage
- anti-oxidant capacity of CSF from patients receiving chemotherapeutics [3]: reduced anti-oxidant capacity
- markers of oxidative damage in rodent brain ([4]; in vivo rodent brain): induced markers of oxidative damage
- antioxidant availability in CSF ([4]; mice, intravenous MTX): reduced antioxidant availability in CSF
- choroid plexus anti-oxidant gene transcription ([4]; mice, intravenous MTX): decreased choroid plexus anti-oxidant gene transcription
- SOD expression in vivo (CSF Sod3, SOD activity) [4, 5]: decreases SOD expression
- oxidative damage in vivo (8-OHdG) [4, 5]: increases oxidative damage
